The subject of assay [1] is NCI-H1703 cells. Description: GLS Cell Proliferation Assay (NCI-H1703). Conditions: Homo sapiens, 120 h; NCI-H1703 cells, 5 days incubation, Sytox Green; read-out: Assay c) GLS Cell Proliferation Assay. Format: cell-based. The source says: (§1) The following assays were used to measure the effects of the compounds of the present invention: a) GLS Enzyme Potency Assay; b) GLS Cell Potency Assay; c) GLS Cell Proliferation Assay. During the description of the assays, generally: • i. The following abbreviations have been used: CO2=Carbon dioxide; DMEM=Dulbecco's Modified Eagle Medium; DMSO=Dimethyl sulphoxide; EDTA=Ethylenediaminetetraacetic acid; EGTA=Ethylene glycol tetraacetic acid; FCS=Foetal calf serum; h=Hour(s); NBS=Non-binding surface; SDS=Sodium dodecyl sulphate; TRIS=Tris(Hydroxymethyl)aminomethane. • ii. IC50 values were calculated using a smart fitting model in Genedata. […] Assay a): GLS Enzyme Potency Assay
The ability of compounds to inhibit cell growth was measured using a 384 well plate NCI-H1703 cell proliferation assay. […] DMSO concentration was maintained at 0.3% by back filling with DMSO solution. Plates were incubated for 5 days at 37° C., 5% CO2, Sytox Green and Saponin added to final concentration of 2 μM and 0.25% respectively and incubated for 6 h prior to analysis. […] IC50 values were calculated by curve fitting to max inhibition of day zero growth using GeneData software analysis.

For assay [2], the system named is cellular GLS activity in PC3 cells. Description: GLS Cell Potency Assay (PC3 coupled assay measuring cellular glutamate depletion). Format: cell-based. Particulars: Homo sapiens, PC-3; PC3 cells, 6 h incubation, cellular glutamate depletion; read-out: Assay b) GLS Cell Potency Assay IC50.
Text: as §1
Compounds were assessed for their potential to inhibit cellular GLS activity by use of a PC3 coupled assay measuring cellular glutamate depletion. […] DMSO concentration was maintained at 0.3% by back filling with DMSO solution. PC3 cells were grown in phenol free DMEM, 10% dialyzed FCS, 2 mM glutamine and following dispersal by trypsinisation were plated at 5.6×10^3 cells per well in 40 μl of growth medium directly into the 384 well assay plates containing dispensed compound. After incubation for 6 h at 37° C., 5% CO2 growth media was aspirated and cells lysed in 15 μl of buffer containing 10 mM TRIS pH7.4, 100 mM NaCl, 1 mM EDTA, 1 mM EGTA, 1 mM NaF, 20 mM Na4P2O7, 2 mM Na3VO4, 1% Triton X-100, 10% glycerol, 0.1% SDS and 0.5% deoxycholate.

Assay [3] addresses GLS1 (Homo sapiens (Human), UniProt O94925). The experiment in a line: GLS Enzyme Potency Assay (Glutamate Oxidase/AmplexRed coupled assay). Format: biochemical. Particulars: 6His tagged GLS protein (amino acids 63-669), 60 minutes reaction with glutamine. The source says: The following assays were used to measure the effects of the compounds of the present invention: a) GLS Enzyme Potency Assay; b) GLS Cell Potency Assay; c) GLS Cell Proliferation Assay. During the description of the assays, generally: • i. The following abbreviations have been used: CO2=Carbon dioxide; DMEM=Dulbecco's Modified Eagle Medium; DMSO=Dimethyl sulphoxide; EDTA=Ethylenediaminetetraacetic acid; EGTA=Ethylene glycol tetraacetic acid; FCS=Foetal calf serum; h=Hour(s); NBS=Non-binding surface; SDS=Sodium dodecyl sulphate; TRIS=Tris(Hydroxymethyl)aminomethane. • ii. IC50 values were calculated using a smart fitting model in Genedata. The IC50 value was the concentration of test compound that inhibited 50% of biological activity. Assay a): GLS Enzyme Potency Assay
A Glutamate Oxidase/AmplexRed coupled assay was used to measure the ability of compounds to bind to and inhibit the activity of GLS1 in vitro. 6His tagged GLS protein (amino acids 63-669) expressed in E. Coli was purified and stored at −80° C. in aliquots. GLS1 was diluted to 2×working concentration and incubated at r.t. to allow the tetrameric/dimeric forms to reach steady state. Assay measurements were performed in buffer comprising 50 mM TRIS pH 7.8, 100 mM NaPO4, pH 7.8, 0.001% v/v Tween20. Purified recombinant GLS1 protein was diluted in assay buffer to 12 nM and pre-incubated at r.t. for 30 minutes. Test compounds were prepared by dilution in 100% DMSO to give the correct dose range for 12 point concentration response and an appropriate volume (2.5-60 nl) dispensed into 384 well micro assay plates (Greiner product code 784900) using a Labcyte Echo 555 acoustic dispenser. DMSO concentration was maintained at 2% by back filling with DMSO solution. 3 μL of diluted GLS1 protein (12 nM) was then dispensed into each well using a BioRaptr automated dispenser (Beckman-Coulter) and incubated for 15 minutes at r.t. 3 μl of 100 mM glutamine diluted in assay buffer was then added and the reaction incubated at r.t. for 60 minutes. The reaction was then stopped by addition of 45 μM 6-(2-bromoethynyl)-2,3-dimethyl-quinazolin-4-one, 75 μM Amplex Red, 0.375 units/mL Horseradish Peroxidase, 0.12 units/mL Glutamate Oxidase in 100 mM TRIS pH7.5. After 30 minutes at room temp in the dark, plates were read on a Perkin Elmer EnVision using 535/590 nm optic filters and raw data analysed using Genedata to generate IC50 values. An artefact version of the assay where the 6His tagged GLS protein and glutamine were replaced with assay buffer was also used to rule out non specific effects on the assay components.

Results on six compounds are retold here after patent US10196382B2, “bis-Pyridazine compounds and their use in treating cancer” (AstraZeneca AB, priority 2015, dated 2019).

GLS1, sequence (O94925 63-669): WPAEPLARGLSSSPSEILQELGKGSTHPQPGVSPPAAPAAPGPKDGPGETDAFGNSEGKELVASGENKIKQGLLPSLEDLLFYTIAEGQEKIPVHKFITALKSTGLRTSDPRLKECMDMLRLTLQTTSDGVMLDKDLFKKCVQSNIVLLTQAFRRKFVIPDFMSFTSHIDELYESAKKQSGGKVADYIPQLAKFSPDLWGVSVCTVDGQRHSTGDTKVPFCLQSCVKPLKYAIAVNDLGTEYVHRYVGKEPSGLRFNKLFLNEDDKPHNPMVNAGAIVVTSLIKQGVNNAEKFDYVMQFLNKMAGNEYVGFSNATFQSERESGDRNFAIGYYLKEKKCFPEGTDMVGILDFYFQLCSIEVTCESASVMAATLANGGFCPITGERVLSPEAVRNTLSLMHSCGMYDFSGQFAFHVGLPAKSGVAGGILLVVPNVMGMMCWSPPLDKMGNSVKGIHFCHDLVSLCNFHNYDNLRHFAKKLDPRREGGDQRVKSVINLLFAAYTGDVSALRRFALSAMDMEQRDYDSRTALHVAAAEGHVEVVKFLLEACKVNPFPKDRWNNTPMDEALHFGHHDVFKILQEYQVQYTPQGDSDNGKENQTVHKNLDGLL

For `O=C(Cc1ccccc1C(F)(F)F)Nc1ccc(N2CC[C@@H](Nc3cccnn3)C2)nn1` [Example 5, N-[6-[(3R)-3-(Pyridazin-3-ylamino)pyrrolidin-1-yl]pyridazin-3-yl]-2-[2-(trifluoromethyl)phenyl]acetamide], the IC50 turned out to be 3 nM in assay [1], 1 nM in assay [2] and 30.6 nM in assay [3].
`COc1cccc([C@H](OC)C(=O)Nc2ccc(N3CC[C@@H](Nc4cccnn4)C3)nn2)c1` [Example 3, (2S)-2-Methoxy-2-(3-methoxyphenyl)-N-[6-[(3R)-3-(pyridazin-3-ylamino)pyrrolidin-1-yl]pyridazin-3-yl]acetamide]: the IC50 in assay [1] was 3 nM; in assay [2], 1 nM; in assay [3], 29.8 nM.
For `CO[C@H](C(=O)Nc1ccc(N2CC[C@@H](Nc3cccnn3)C2)nn1)c1cccc(OC(F)(F)F)c1` [Example 2, (2S)-2-[3-(Trifluoromethoxy)phenyl]-2-methoxy-N-[6-[(3R)-3-(pyridazin-3-ylamino)pyrrolidin-1-yl]pyridazin-3-yl]acetamide], in that order: 11 nM, 1 nM and 95.7 nM.
Taken in the same sequence, the figures for `COc1ccccc1CC(=O)Nc1ccc(N2CC[C@@H](Nc3cccnn3)C2)nn1` [Example 4, 2-(2-Methoxyphenyl)-N-[6-[(3R)-3-(pyridazin-3-ylamino)pyrrolidin-1-yl]pyridazin-3-yl]acetamide] were 43 nM, 7 nM and 30.9 nM.
With `CO[C@H](C(=O)Nc1ccc(N2CC[C@@H](Nc3cccnn3)C2)nn1)c1cccc(OC(F)F)c1` [Example 1, (2S)-2-[3-(Difluoromethoxy)phenyl]-2-methoxy-N-[6-[(3R)-3-(pyridazin-3-ylamino)pyrrolidin-1-yl]pyridazin-3-yl]acetamide], the IC50 in assay [1] came to 9 nM; in assay [2], 1 nM; in assay [3], 24.7 nM.
As to `O=C(Cc1ccccc1OC(F)(F)F)Nc1ccc(N2CC[C@@H](Nc3cccnn3)C2)nn1` [Example 6, N-[6-[(3R)-3-(Pyridazin-3-ylamino)pyrrolidin-1-yl]pyridazin-3-yl]-2-[2-(trifluoromethoxy)phenyl]acetamide], the results for the IC50 in assay [1], in assay [2] and in assay [3] were 12 nM, 1 nM and 25.2 nM, respectively.
